The target of experiment [1] is T1, membrane receptors of human breast cancer cells (LHRH receptors) (Homo sapiens, UniProt P30968).
T1 construct: from tissue
T1 sequence (P30968 1-328): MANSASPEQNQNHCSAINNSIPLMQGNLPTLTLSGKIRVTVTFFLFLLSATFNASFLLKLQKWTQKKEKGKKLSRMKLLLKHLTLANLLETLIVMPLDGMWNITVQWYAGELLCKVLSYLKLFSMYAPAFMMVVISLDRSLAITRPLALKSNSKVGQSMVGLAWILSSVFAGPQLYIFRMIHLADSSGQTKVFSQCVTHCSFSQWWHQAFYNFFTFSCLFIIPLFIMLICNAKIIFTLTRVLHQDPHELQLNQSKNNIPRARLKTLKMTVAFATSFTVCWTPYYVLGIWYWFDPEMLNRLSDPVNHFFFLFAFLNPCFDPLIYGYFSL
Description: Receptor binding affinity for human breast cancer cell membranes, 125I-[D-Trp]6 LHRH as labelled ligand. The conditions noted are these: 125I-[D-Trp]6 LHRH ligand, NB = no binding. The method, then: Affinity for peptides to human breast cancer cell membranes is determined by using labelled LHRH and [D-Trp^6 ]LHRH. The assay is carried out similarly to that described by T. Kadar et al., Proc. Natl. Acad. Sci. USA, 85, 890-894 (1988) and M. Fekete et al., Endocrinology, 124, 946-955 (1989).
(§1) Table 2 presents the antiovulatory activity and human breast cancer cell membrane receptor binding affinity of the claimed compounds having LHRH-inhibiting properties. The inhibitory action was determined in vivo, in 4-day cycling rats as described [A. Corbin and C. W. Beattie, Endocr. Res. Commun., 2, 1-23 (1975)].

Experiment [2] relates to MCF-7 human breast cancer cell line. Description: Inhibition of 3H-thymidine incorporation into DNA, MCF-7. Format: cell-based. On the procedure:
Ability of peptides of Formula I to inhibit incorporation of [^3 H]thymidine into DNA of monolayer cultures the human mammary tumor cell line MCF-7 is assayed as described [V. K. Sondak et al., Cancer Research, 44, 1725-1728 (1984); F. Holzel et al., J. Cancer Res. Clin. Oncol. 109, 217-226 (1985); M. Albert et al., J. Cancer Res. Clin. Oncol. 109, 210-216 (1985)].
(§2) 200,000 cells in 200 μl of […]+2% CFBS were incubated with 1, 5 or 10 μg cytotoxic analogs for 3 hours or 23 hours then 1 μCi ^3 H-thymidine added and incubated an additional 60 min. DNA extracted with 1 N perchloric acid and the radioactivity measured.

The subject of experiment [3] is MDA-MB-231 Cell Line. Description: Inhibition of 3H-thymidine incorporation into DNA, MDA-MB-231. Format: cell-based, human. On the procedure: as §2
Experiment [4] deals with T47D Cell line. The experiment in a line: Inhibition of 3H-thymidine incorporation into DNA, T47D. Format: cell-based, human. The method, then:
as §2

Experiment [5] deals with dispersed rat pituitary cells (LH release). Description: LH-releasing activity in superfused rat pituitary cell system. The conditions noted are these: Table 1; compared to that produced by 3 nM LH-RH; peptide infused 3 min. Format: cell-based. An excerpt:
B. Greenstein, Harwood Academic Publishers, London, (1990)].

The subject of experiment [6] is SkBr-3 Cell line. The experiment in a line: Inhibition of 3H-thymidine incorporation into DNA, SkBr-3. Format: cell-based, human. On the procedure:
as §2

In experiment [7] the test system is human mammary cell line MDA-MB-231. The conditions noted are these: 10 μg dose; cited from earlier work.
Experiment [8] has as its system ovulation in 4-day cycling rats. Description: In vivo antiovulatory activity in 4-day-cycling rats. The conditions noted are these: 10 μg per rat. The method, then: This activity of the peptides is determined in 4-day-cycling rats as described [A. Corbin and C. W. Beattie, Endocr. Res. Commun., 2, 1-23 (1975)].
as §1

“pGlu-His-Trp-Ser-Tyr-D-Lys(MTX)-Leu-Arg-Pro-Gly-NH2 [4A]”: in experiment [1] (Table 1 (agonists)), the “Affinity Constant Ka1” value was found to be 5.42 nM⁻¹ and the “Affinity Constant Ka2” value is 1.59 µM⁻¹.
Regarding “pGlu-His-Trp-Ser-Tyr-D-Lys(Glt-DOX)-Leu-Arg-Pro-Gly-NH2 [compound 33]”, the % Inhibition (commonly the drop in the measured response relative to a control, in per cent) at 4 hrs in experiment [2] (dose 1 μg/ml) is listed as 19%; in experiment [2] (dose 5 μg/ml), 34%; in experiment [3] (dose 1 μg/ml) it was 20%; in experiment [3] (dose 10 μg/ml) it was 9%; in experiment [4] (dose 1 μg/ml) it was 32%; in experiment [4] (dose 10 μg/ml), 44%. Moreover, the “% Inhibition at 4 hrs” value in experiment [6] (dose 1 μg/ml) came out at 27%; in experiment [6] (dose 10 μg/ml) it was 24%. The “% Inhibition at 24 hrs” value in experiment [2] (dose 1 μg/ml) is reported as 0%; in experiment [2] (dose 5 μg/ml) it was 61%; in experiment [3] (dose 1 μg/ml) it was 0%; in experiment [3] (dose 10 μg/ml) it was 0%; in experiment [4] (dose 1 μg/ml) it was 11%; in experiment [4] (dose 10 μg/ml), 10%. Besides, the figures for the “% Inhibition at 24 hrs” value in experiment [6] (dose 1 μg/ml) and in experiment [6] (dose 10 μg/ml) were 0% and 14%, respectively. Moreover, the “Affinity Constant Ka2” value in experiment [1] (Table 1 (agonists)) was found to be 14.4 µM⁻¹. Moreover, the “Relative Activity (LH-releasing activity)” value in experiment [5] is 12.
“pGlu-His-Trp-Ser-Tyr-D-Lys(MTX)-Leu-Arg-Pro-Gly-NH2 [4B]”: the “Affinity Constant Ka1” value in experiment [1] (Table 1 (agonists)) came out at 0.63 nM⁻¹.
In the case of “pGlu-His-Trp-Ser-Tyr-D-Lys[Ahx(MTX)]-Leu-Arg-Pro-Gly-NH2 [compound 34]”, the “% Inhibition at 24 hrs” value in experiment [2] (dose 1 μg/ml) was 16%; in experiment [2] (dose 10 μg/ml), 21%. The “Affinity Constant Ka1” value in experiment [1] (Table 1 (agonists)) was found to be 4.42 nM⁻¹. In addition, in experiment [5], the “Relative Activity (LH-releasing activity)” value was found to be 6.7.
As for “pGlu-His-Trp-Ser-Tyr-D-Lys(MTX)-Leu-Arg-Pro-Gly-NH2 [compound 4]”, the “% Inhibition at 4 hrs” value is given as 23% in experiment [3] (dose 1 μg/ml); 31% in experiment [3] (dose 10 μg/ml); 38% in experiment [4] (dose 1 μg/ml); 54% in experiment [4] (dose 10 μg/ml); 21% in experiment [6] (dose 1 μg/ml); 36% in experiment [6] (dose 10 μg/ml). Besides, the “% Inhibition at 24 hrs” value is given as 0% in experiment [3] (dose 1 μg/ml); 8% in experiment [3] (dose 10 μg/ml); 26% in experiment [4] (dose 1 μg/ml); 41% in experiment [4] (dose 10 μg/ml); 16% in experiment [6] (dose 1 μg/ml); 10% in experiment [6] (dose 10 μg/ml).
In the case of “pGlu-His-Trp-Ser-Tyr-D-Lys[Ahx-A2 bu(SAL)2 (Cu)]-Leu-Arg-Pro-Gly-NH2”, in experiment [7], the “inhibition of [3H]thymidine incorporation into DNA” value was 87%.
Regarding “Ac-D-Nal(2)-D-Phe(4Cl)-D-Trp-Ser-Arg-D-Lys(D-Mel)-Leu-Arg-Pro-D-Ala-NH. sub.2 [compound 19]”, the entries for the “% Inhibition at 24 hrs” value in experiment [2] (dose 1 μg/ml) and in experiment [2] (dose 10 μg/ml) were 34% and 49%, respectively. The “Affinity Constant Ka2” value in experiment [1] (Table 2 (antagonists)) came to 32.54 µM⁻¹. Also, the “% Ovulation Blocked” value in experiment [8] is reported as 40%.
Turning to “Ac-D-Nal(2)-D-Phe(4Cl)-D-Trp-Ser-Tyr-D-Lys(MTX)-Leu-Arg-Pro-D-Ala-NH2 [compound 18]”, in experiment [1] (Table 2 (antagonists)), the “Affinity Constant Ka1” value came to 3.58 nM⁻¹ and the “Affinity Constant Ka2” value was determined as 1.07 µM⁻¹.
In the case of “Ac-D-Nal(2)-D-Phe(4Cl)-D-Pal(3)-Ser-Arg-D-Lys(MTX)-Leu-Arg-Pro-D-Ala-NH. sub.2 [compound 29]”, the “% Inhibition at 24 hrs” value was found to be 10% in experiment [2] (dose 1 μg/ml) and 16% in experiment [2] (dose 10 μg/ml). Moreover, in experiment [1] (Table 2 (antagonists)), the “Affinity Constant Ka1” value is 0.44 nM⁻¹. Moreover, in experiment [1] (Table 2 (antagonists)), the “Affinity Constant Ka2” value came to 1.04 µM⁻¹. Further, in experiment [8], the “% Ovulation Blocked” value is listed as 100%.
“pGlu-His-Trp-Ser-Tyr-D-Orn(MTX)-Leu-Arg-Pro-Gly-NH2 [compound 11]”: the “% Inhibition at 4 hrs” value worked out at 34% in experiment [2] (dose 1 μg/ml) and 29% in experiment [2] (dose 10 μg/ml). Moreover, the “% Inhibition at 24 hrs” value in experiment [2] (dose 1 μg/ml) was 7%; in experiment [2] (dose 10 μg/ml), 3%.
For “Ac-D-Nal(2)-D-Phe(4Cl)-D-Trp-Ser-Tyr-D-Lys(D-Mel)-Leu-Arg-Pro-D-Ala-NH. sub.2 [compound 15]”, in experiment [1] (Table 2 (antagonists)), the “Affinity Constant Ka1” value was determined as 3.58 nM⁻¹. The “% Ovulation Blocked” value in experiment [8] was 100%.

The record behind these values is patent publication US6214969A, “Luteinizing hormone releasing hormone analogs with cytotoxic moiety” (The Administrators of the Tulane Educational Fund, priority 1993, dated 2001).
